Measured values: patent publication US20260118345A1, “METHOD OF EVALUATING INTERCELLULAR INTERACTIONS IN NEUROINFLAMMATION” (FUJIFILM Corporation, priority 2023, published 2026)

Columns and labels:
Type in all cases: cell-based, human
NF-κB [1] = experiment: NF-κB localization after LPS stimulation, three-cell-type co-culture containing about 0.11% microglia; conditions: proportion of microglia about 0.11%
Description: The amount of cells required for the activated microglia to affect other cells was examined. Two-dimensional three-cell-type co-cultures of astrocytes, neurons, and microglia in which the proportion of the microglia was about 11%, 1.1%, and 0.11% were produced by the same method as in <1> of Test Example 1. In addition, the cells were subjected to LPS stimulation and fixed by the same method as in <1> of Test Example 1. Furthermore, the localization of NF-κB was evaluated by the same method as in <1> of Test Example 1.

[2] = test system: two-cell-type co-culture of neurons and astrocytes; experiment: Neural activity by calcium imaging (BPM), two-dimensional two-cell-type co-culture of neurons and astrocytes; conditions: 24 hours after stimulation (TNF-α 7.5 ng/mL or LPS 100 ng/mL)
Description: Matrigel basement membrane matrix (Corning, 356234) diluted 120-fold with DMEM/F12 (Life technologies, 11320-033) was added to a 96-well plate at 65 μL/well and allowed to stand at 4° C. After 24 hours, the culture medium was replaced with a progenitor cell culture medium and used. Astrocyte precursor cells (XCell Science, XCS-AP-001-1V) were seeded in a 96-well plate at a density of 6×10^4 cells/well, cultured under the conditions of 37° C. and 5% CO2, after culture medium was replaced with the differentiation induction culture medium, further cultured for 5 days to differentiate into astrocytes. […] After centrifugation, the supernatant was removed, the cells were suspended in 1 mL of the co-culture medium, and the number of cells was counted. […] In addition, at 24 hours after the stimulation with LPS or TNF-α, the neural activity was evaluated by calcium imaging. […] After incubating for 1 hour under conditions of 37° C. and 5% CO2, the solution was replaced with a warmed (37° C.) recording solution, and the fluorescence was measured for 10 minutes with FDSS (registered trademark)/μcell (Hamamatsu Photonics K. K., C13299). The neural activity was evaluated by quantifying the number of peaks of calcium oscillation using Wave Checker Software (Hamamatsu Photonics K. K.).

NF-κB [3] = experiment: NF-κB localization after LPS stimulation, two-cell-type co-culture of nerve and astrocytes; conditions: co-culture without microglia, all time points
[4] = test system: three-cell-type co-culture of neurons, astrocytes, and microglia; experiment: Neural activity by calcium imaging (BPM), two-dimensional three-cell-type co-culture of neurons, astrocytes and microglia; conditions: 24 hours after stimulation (TNF-α 7.5 ng/mL or LPS 100 ng/mL)
Description: Matrigel basement membrane matrix (Corning, 356234) diluted 120-fold with DMEM/F12 (Life technologies, 11320-033) was added to a 96-well plate at 65 μL/well and allowed to stand at 4° C. After 24 hours, the culture medium was replaced with a progenitor cell culture medium and used. Astrocyte precursor cells (XCell Science, XCS-AP-001-1V) were seeded in a 96-well plate at a density of 6×10^4 cells/well, cultured under the conditions of 37° C. and 5% CO2, after culture medium was replaced with the differentiation induction culture medium, further cultured for 5 days to differentiate into astrocytes. […] After centrifugation, the supernatant was removed, the cells were suspended in 1 mL of the co-culture medium, and the number of cells was counted. […] After centrifugation, the supernatant was removed, the cells were suspended in 1 mL of the co-culture medium, and the number of cells was counted. […] In addition, at 24 hours after the stimulation with LPS or TNF-α, the neural activity was evaluated by calcium imaging. […] After incubating for 1 hour under conditions of 37° C. and 5% CO2, the solution was replaced with a warmed (37° C.) recording solution, and the fluorescence was measured for 10 minutes with FDSS (registered trademark)/μcell (Hamamatsu Photonics K. K., C13299). […]

For lipopolysaccharide [LPS], the “nuclear translocation of NF-κB” value (NF-κB [1]; 1 hour after the LPS treatment) was “only some cells”, the “nuclear translocation of NF-κB” value (NF-κB [1]; 3 hours and 6 hours after the LPS treatment) was “many cells” and the “BPM (the number of peaks of calcium oscillation per minute) as compared with the control” value [2] was “no change”. The “nuclear translocation of NF-κB” value (NF-κB [3]) was “not observed at any time” and the “BPM (the number of peaks of calcium oscillation per minute) as compared with the control” value [4] was “increase”.
